Assay results from patent US11542316B2, “S-Arrestin peptides and therapeutic uses thereof” (APITOPE INTERNATIONAL NV, priority 2017, dated 2023).
Ends that are not written are not given here.

Target: T1, MHC II molecules present on dendritic cells (DC) (Homo sapiens, UniProt P01903+P01911)
T1 construct: from tissue; host or cells: CD11c+ dendritic cells from spleens of DR2tg mice (DRA*0101 and DRB1*1501 cDNAs under a mouse MHCII promoter, no mouse MHC class II)
Experiment: In vivo presentation experiment, DR2tg mice
Details: 100 μg peptide s.c., CD11c+ cells harvested after 2 hours, co-culture 48 hours
Text: FIG. 14: In vivo presentation protocol. Mice are immunized with peptide/CFA and a T cell line is established. For this, ten days after immunization the LN and spleens are harvested and cultured with different concentrations of peptide; 2×10^6 cells/ml APC+1×10^6 cells/ml CD4^+ cells per well. At day 7 the cells are re-stimulated with fresh APC and the same concentrations of peptide. After 14 to 21 days, CD4^+ cells are isolated from these cultures by magnetic bead isolation. These CD4^+ cells are co-cultured with CD11c^+ (dendritic) cells isolated by magnetic bead isolation from spleens of mice s.c. injected with peptide 2 hours before. Control mice receive a s.c. injection of PBS. After 48 hours, supernatant is collected and cytokine response (IFN-γ) is measured. […]
FIG. 17: In vivo presentation of HIP-9FL nested peptides in DR2 mice. […] After 48 hours, supernatant was collected and IFN-γ production was measured by ELISA. […]
DR3tg or DR2tg mice were injected with 100 μg of peptide in 100 μl PBS subcutaneously (s.c.) in the flank. […] After 48 hours, supernatant of these co-cultures was collected and CD4^+ T cell activation was analysed by IFN-γ ELISA (R&D Systems, Abingdon, UK). In a parallel experiment, CD4^+ T cell responses towards peptide added in vitro were assessed to make sure the T cells recognize the peptides presented by the CD11c^+ cells.

T1 sequence (P01903 26-254): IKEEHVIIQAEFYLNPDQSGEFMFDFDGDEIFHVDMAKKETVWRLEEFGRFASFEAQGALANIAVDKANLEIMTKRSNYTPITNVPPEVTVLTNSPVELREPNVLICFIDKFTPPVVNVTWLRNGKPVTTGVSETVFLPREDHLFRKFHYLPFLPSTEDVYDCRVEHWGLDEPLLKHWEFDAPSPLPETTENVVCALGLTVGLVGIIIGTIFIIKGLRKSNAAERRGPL
T1 sequence (P01911 30-266): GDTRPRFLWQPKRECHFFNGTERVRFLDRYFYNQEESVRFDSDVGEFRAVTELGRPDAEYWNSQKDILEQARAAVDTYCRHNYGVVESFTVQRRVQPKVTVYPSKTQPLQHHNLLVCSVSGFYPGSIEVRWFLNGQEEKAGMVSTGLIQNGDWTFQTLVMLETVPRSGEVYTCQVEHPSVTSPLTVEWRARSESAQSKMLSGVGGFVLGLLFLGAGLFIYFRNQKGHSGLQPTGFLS

Substance: KKKAFVEQVANVVLKKK-NH2 [HIP-9K1-KKK, KKKAFVEQVANVVLKKK]
- picked up and presented by MHC II on dendritic cells to peptide-specific T cells (IFN-γ production): presented by DC to T cells
